# What was measured:
# [1] = tested on: Bacillus subtilis ATCC 6623 (Bs); test: MIC, microdilution (CLSI); format: cell-based; conditions: ATCC6623; Bs, Bacillus subtilis ATCC 6623; n = 3; read-out: MIC
# Method in brief: (§1)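 Starting from 32 µg/mL in DMSO, each compound was diluted two-fold in CAMHB; culture was then added and plates held at 35 ℃ for 18–20 h. Inhibition was judged by absence of visible turbidity.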
# [2] = tested on: E. faecalis ATCC 29212 (Ef12); test: MIC, microdilution (CLSI); format: cell-based; conditions: Enterococcus faecalis, ATCC29212; Ef12, antibiotic susceptible E. faecalis ATCC 29212; n = 3; read-out: MIC
# Method in brief: as §1
# [3] = tested on: E. faecalis ATCC 51299 (Ef99); test: MIC, microdilution (CLSI); format: cell-based; conditions: Enterococcus faecalis, ATCC 51299 / VRE; Ef99, vancomycin-resistant (VRE) E. faecalis ATCC 51299; n = 3; read-out: MIC
# Method in brief: as §1
# [4] = tested on: E. faecium ATCC 700221 (Ef21); test: MIC, microdilution (CLSI); format: cell-based; conditions: Enterococcus faecium, ATCC 700221 / VRE; Ef21, vancomycin-resistant (VRE) E. faecium ATCC 700221; n = 3; read-out: MIC
# Method in brief: as §1
# [5] = tested on: S. aureus ATCC 25923 (Sa23); test: MIC, microdilution (CLSI); format: cell-based; conditions: Staphylococcus aureus, ATCC25923; Sa23, antibiotic susceptible S. aureus ATCC 25923; n = 3; read-out: MIC
# Method in brief: as §1
# [6] = tested on: S. aureus ATCC 33591 (Sa91); test: MIC, microdilution (CLSI); format: cell-based; conditions: Staphylococcus aureus, ATCC33591; Sa91, methicillin-resistant S. aureus ATCC 33591; n = 3; read-out: MIC
# Method in brief: as §1
# [7] = tested on: S. aureus ATCC 33592 (Sa92); test: MIC, microdilution (CLSI); format: cell-based; conditions: Staphylococcus aureus, ATCC33592; Sa92, methicillin-resistant S. aureus ATCC 33592; n = 3; read-out: MIC
# Method in brief: as §1
# [8] = tested on: S. aureus ATCC 700699 (Sa99); test: MIC, microdilution (CLSI); format: cell-based; conditions: Staphylococcus aureus, ATCC700699; Sa99, methicillin-resistant S. aureus ATCC 700699; n = 3; read-out: MIC
# Method in brief: as §1
# [9] = tested on: S. aureus BAA-2312 (Sa12); test: MIC, microdilution (CLSI); format: cell-based; conditions: Staphylococcus aureus, BAA2312; Sa12, methicillin-resistant S. aureus BAA-2312; n = 3; read-out: MIC
# Method in brief: as §1
# [10] = tested on: S. epidermidis ATCC 700296 (Se); test: MIC, microdilution (CLSI); format: cell-based; conditions: Staphylococcus epidermidis, ATCC700296; Se, S. epidermidis ATCC 700296; n = 3; read-out: MIC
# Method in brief: as §1
# S. aureus strains = test: MIC against S. aureus strains; format: cell-based, Staphylococcus aureus
# Experimental: (§2) Compounds were dissolved in dimethyl sulfoxide (DMSO) to achieve a starting concentration of 32 µg/mL as described by us previously. Compounds were further diluted two-fold across the 96-well honeycomb plate columns in cation adjusted Mueller Hinton broth (CAMHB), and bacterial culture was added. Plates were incubated for 18–20 h at 35 ℃ before determining the minimum concentrations at which wells had no visible turbidity to the naked eye. The MIC values were determined from at least a duplicate result obtained from three independent experiments using fresh bacterial cultures on different days.
# enterococci strains = test: MIC against enterococci strains; format: cell-based; conditions: tested enterococci strains
# Experimental: as §2
compound,measurement,setting,value
"O=C(O)c1ccc(-n2cc(CNc3ccc(Br)c(Cl)c3)c(-c3cc(C(F)(F)F)cc(C(F)(F)F)c3)n2)cc1 [Compound 21, 4-[3-[3,5-Bis(trifluoromethyl)phenyl]-4-[(4-bromo-3-chloro-anilino)methyl]pyrazol-1-yl] benzoic acid]",MIC,[1],1 mg/L
same,MIC,[2],1 mg/L
same,MIC,[3],1 mg/L
same,MIC,[4],1 mg/L
same,MIC,[5],1 mg/L
same,MIC,[6],0.5 mg/L
same,MIC,[7],0.5 mg/L
same,MIC,[8],2 mg/L
same,MIC,[9],1 mg/L
same,MIC,[10],2 mg/L
same,MIC,"S. aureus strains; Staphylococcus aureus, S. aureus strains, including MRSA",≥ 0.5 mg/L
same,times more effective than vancomycin and daptomycin,S. aureus strains; against S. aureus strains,up to 4 times
same,MIC,enterococci strains,1 mg/L

# Source: paper PMC8398255, “Synthesis of 3,5-Bis(trifluoromethyl)phenyl-Substituted Pyrazole Derivatives as Potent Growth Inhibitors of Drug-Resistant Bacteria” (Molecules, 2021)
